Measured values taken from the supplement of paper PMC10307832.

Experiments:
Test in all cases: relative viability (nuclei count vs DMSO), 5 days (fraction); higher = more cells survive
201T = test system: 201T
Outline: (§1)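 Nuclei were stained with Hoechst during a one-step fixation (final 0.05% Triton X-100, 1% formaldehyde, 1 ug/ml Hoechst) carried out 5 days after dosing, then counted on 4× images. The cells, lung cancer lines in 1536-well plates, had been dosed by pin tool the day after seeding with one drug alone or a fixed anchor-drug dose plus five library-drug doses (not always all listed) in √10 steps. Relative viability is the nuclei count in treated wells divided by that in vehicle wells, and each value is the median of duplicate plates.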

ABC-1 = test system: ABC-1
Outline: as §1

COR-L 105 = test system: COR-L 105
Outline: as §1

COR-L23 = test system: COR-L23
Outline: as §1

EKVX = test system: EKVX
Outline: as §1

EPLC-272H = test system: EPLC-272H
Outline: as §1

H3255 = test system: H3255
Outline: as §1

HCC-15 = test system: HCC-15
Outline: as §1

HCC-44 = test system: HCC-44
Outline: as §1

HCC-827 = test system: HCC-827
Outline: as §1

LCLC-103H = test system: LCLC-103H
Outline: as §1

NCI-H1437 = test system: NCI-H1437
Outline: as §1

NCI-H1650 = test system: NCI-H1650
Outline: as §1

NCI-H1651 = test system: NCI-H1651
Outline: as §1

NCI-H1792 = test system: NCI-H1792
Outline: as §1

NCI-H1975 = test system: NCI-H1975
Outline: as §1

NCI-H2087 = test system: NCI-H2087
Outline: as §1

NCI-H358 = test system: NCI-H358
Outline: as §1

NCI-H520 = test system: NCI-H520
Outline: as §1

NCI-H647 = test system: NCI-H647
Outline: as §1

NCI-H661 = test system: NCI-H661
Outline: as §1

NCI-H727 = test system: NCI-H727
Outline: as §1

UMC-11 = test system: UMC-11
Outline: as §1

O=c1[nH]c2ccccc2n1C1CCN(CCCC(c2ccc(F)cc2)c2ccc(F)cc2)CC1 [Pimozide] + COc1cccc2cc(-c3nc([C@H]4CC[C@H](C(=O)O)CC4)n4ncnc(N)c34)[nH]c12 [OSI-027] (partner 0.5 µM)
relative viability (201T; first compound 0.08 µM): 0.821
relative viability (201T; first compound 0.253 µM): 0.825
relative viability (201T; first compound 0.8 µM): 0.711
relative viability (201T; first compound 2.53 µM): 0.709
relative viability (201T; first compound 8 µM): 0.584
relative viability (ABC-1; first compound 0.08 µM): 0.514
relative viability (ABC-1; first compound 0.253 µM): 0.496
relative viability (ABC-1; first compound 0.8 µM): 0.422
relative viability (ABC-1; first compound 2.53 µM): 0.351
relative viability (ABC-1; first compound 8 µM): 0.354
relative viability (COR-L 105; first compound 0.253 µM): 0.778
relative viability (COR-L 105; first compound 0.8 µM): 0.617
relative viability (COR-L 105; first compound 2.53 µM): 0.64
relative viability (COR-L 105; first compound 8 µM): 0.58
relative viability (COR-L23; first compound 0.08 µM): 0.757
relative viability (COR-L23; first compound 0.253 µM): 0.75
relative viability (COR-L23; first compound 0.8 µM): 0.694
relative viability (COR-L23; first compound 2.53 µM): 0.731
relative viability (COR-L23; first compound 8 µM): 0.639
relative viability (EKVX; first compound 0.08 µM): 0.548
relative viability (EKVX; first compound 0.253 µM): 0.733
relative viability (EKVX; first compound 0.8 µM): 0.668
relative viability (EKVX; first compound 2.53 µM): 0.637
relative viability (EKVX; first compound 8 µM): 0.647
relative viability (EPLC-272H; first compound 0.08 µM): 0.276
relative viability (EPLC-272H; first compound 0.253 µM): 0.302
relative viability (EPLC-272H; first compound 0.8 µM): 0.25
relative viability (EPLC-272H; first compound 2.53 µM): 0.176
relative viability (EPLC-272H; first compound 8 µM): 0.234
relative viability (H3255; first compound 0.253 µM): 0.514
relative viability (H3255; first compound 0.8 µM): 0.563
relative viability (H3255; first compound 2.53 µM): 0.6
relative viability (H3255; first compound 8 µM): 0.584
relative viability (HCC-15; first compound 0.08 µM): 0.817
relative viability (HCC-15; first compound 0.253 µM): 0.668
relative viability (HCC-15; first compound 0.8 µM): 0.472
relative viability (HCC-15; first compound 2.53 µM): 0.618
relative viability (HCC-15; first compound 8 µM): 0.573
relative viability (HCC-44; first compound 0.08 µM): 0.489
relative viability (HCC-44; first compound 0.253 µM): 0.554
relative viability (HCC-44; first compound 0.8 µM): 0.4
relative viability (HCC-44; first compound 2.53 µM): 0.52
relative viability (HCC-44; first compound 8 µM): 0.289
relative viability (HCC-827; first compound 0.253 µM): 0.801
relative viability (HCC-827; first compound 0.8 µM): 0.738
relative viability (HCC-827; first compound 2.53 µM): 0.782
relative viability (HCC-827; first compound 8 µM): 0.769
relative viability (LCLC-103H; first compound 0.08 µM): 0.482
relative viability (LCLC-103H; first compound 0.253 µM): 0.452
relative viability (LCLC-103H; first compound 0.8 µM): 0.384
relative viability (LCLC-103H; first compound 2.53 µM): 0.425
relative viability (LCLC-103H; first compound 8 µM): 0.423
relative viability (NCI-H1437; first compound 0.08 µM): 0.93
relative viability (NCI-H1437; first compound 0.253 µM): 0.888
relative viability (NCI-H1437; first compound 0.8 µM): 0.883
relative viability (NCI-H1437; first compound 2.53 µM): 0.89
relative viability (NCI-H1437; first compound 8 µM): 0.676
relative viability (NCI-H1650; first compound 0.08 µM): 0.459
relative viability (NCI-H1650; first compound 0.253 µM): 0.668
relative viability (NCI-H1650; first compound 0.8 µM): 0.491
relative viability (NCI-H1650; first compound 2.53 µM): 0.643
relative viability (NCI-H1650; first compound 8 µM): 0.437
relative viability (NCI-H1651; first compound 0.08 µM): 0.657
relative viability (NCI-H1651; first compound 0.253 µM): 0.7
relative viability (NCI-H1651; first compound 0.8 µM): 0.633
relative viability (NCI-H1651; first compound 2.53 µM): 0.757
relative viability (NCI-H1651; first compound 8 µM): 0.596
relative viability (NCI-H1792; first compound 0.08 µM): 0.758
relative viability (NCI-H1792; first compound 0.253 µM): 0.691
relative viability (NCI-H1792; first compound 0.8 µM): 0.666
relative viability (NCI-H1792; first compound 2.53 µM): 0.663
relative viability (NCI-H1792; first compound 8 µM): 0.736
relative viability (NCI-H1975; first compound 0.08 µM): 0.838
relative viability (NCI-H1975; first compound 0.253 µM): 0.695
relative viability (NCI-H1975; first compound 0.8 µM): 0.753
relative viability (NCI-H1975; first compound 2.53 µM): 0.651
relative viability (NCI-H1975; first compound 8 µM): 0.561
relative viability (NCI-H2087; first compound 0.08 µM): 0.765
relative viability (NCI-H2087; first compound 0.253 µM): 0.55
relative viability (NCI-H2087; first compound 2.53 µM): 0.427
relative viability (NCI-H2087; first compound 8 µM): 0.377
relative viability (NCI-H358; first compound 0.08 µM): 0.829
relative viability (NCI-H358; first compound 0.253 µM): 0.74
relative viability (NCI-H358; first compound 0.8 µM): 0.697
relative viability (NCI-H358; first compound 2.53 µM): 0.646
relative viability (NCI-H358; first compound 8 µM): 0.678
relative viability (NCI-H520; first compound 0.08 µM): 0.24
relative viability (NCI-H520; first compound 0.253 µM): 0.255
relative viability (NCI-H520; first compound 0.8 µM): 0.235
relative viability (NCI-H520; first compound 2.53 µM): 0.212
relative viability (NCI-H520; first compound 8 µM): 0.227
relative viability (NCI-H647; first compound 0.08 µM): 0.656
relative viability (NCI-H647; first compound 0.253 µM): 0.71
relative viability (NCI-H647; first compound 0.8 µM): 0.677
relative viability (NCI-H647; first compound 2.53 µM): 0.611
relative viability (NCI-H647; first compound 8 µM): 0.404
relative viability (NCI-H661; first compound 0.08 µM): 0.691
relative viability (NCI-H661; first compound 0.253 µM): 0.647
relative viability (NCI-H661; first compound 0.8 µM): 0.624
relative viability (NCI-H661; first compound 2.53 µM): 0.533
relative viability (NCI-H661; first compound 8 µM): 0.538
relative viability (NCI-H727; first compound 0.08 µM): 0.717
relative viability (NCI-H727; first compound 0.253 µM): 0.55
relative viability (NCI-H727; first compound 0.8 µM): 0.512
relative viability (NCI-H727; first compound 2.53 µM): 0.652
relative viability (NCI-H727; first compound 8 µM): 0.54
relative viability (UMC-11; first compound 0.08 µM): 0.515
relative viability (UMC-11; first compound 0.253 µM): 0.421
relative viability (UMC-11; first compound 0.8 µM): 0.51
relative viability (UMC-11; first compound 2.53 µM): 0.357
relative viability (UMC-11; first compound 8 µM): 0.312
